According to patent publication US11702429B2, “mTORC modulators and uses thereof” (Aeovian Pharmaceuticals, Inc., priority 2019, dated 2023):
Read-outs that look alike come from different tables or passages of the source.

Tests used:
[1] = target: T1, mTORC2 (Homo sapiens, UniProt P42345+P62942); experiment: Inhibition assay for mTORC2: phosphorylation of pAkt at Ser473, AlphaLISA in PC3 cells; assay type: cell-based; conditions: for IC50: read-out: pIC50 mTORC2 (converted)
T1 construct: endogenous in cells; host or cells: PC3 cells (human prostate adenocarcinoma)
T1 sequence (P62942 2-108 limits assumed, other chains not shown): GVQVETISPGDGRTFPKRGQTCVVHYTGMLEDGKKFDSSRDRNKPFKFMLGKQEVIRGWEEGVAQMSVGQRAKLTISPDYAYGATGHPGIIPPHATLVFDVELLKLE
Protocol: (§1) The IC50s of the inhibition of mTORC1 and mTORC2 were determined in vitro by determining the phosphorylation of pS6K at position Thr389 (mTORC1 inhibition) and pAkt at Ser473 (mTORC2 inhibition). In vitro studies were performed with AlphaLISA® technology using PC3 cells (Prostate Adenocarcinoma; Human (Homo sapiens)). The cells were seeded in 96 well plates and were treated for 24 hours with the different compounds. […] All analysis were performed using GraphPad Prism 7.0 (GraphPad Software, San Diego, USA).

[2] = target: T2, mTORC1 (Homo sapiens, UniProt P42345+P62942); experiment: Inhibition assay for mTORC1: phosphorylation of pS6K at Thr389, AlphaLISA in PC3 cells; assay type: cell-based; conditions: for IC50: read-out: pIC50 mTORC1 (converted)
T2 construct: endogenous in cells; host or cells: PC3 cells (human prostate adenocarcinoma)
Protocol: as §1

[3] = PC3 cells, treated 24 hours, pAkt Ser473, AlphaLISA, C16 diastereomer mixtures not separated
[4] = PC3 cells, treated 24 hours, pS6K Thr389, AlphaLISA, C16 diastereomer mixtures not separated

| IC50 [1] [nM] | IC50 [2] [nM] | SMILES | other results |
| --- | --- | --- | --- |
| 1000 to 10000 | < 0.316 | CO[C@@H]1C[C@H](C[C@@H](C)[C@@H]2CC(=O)[C@H](C)/C=C(\C)[C@@H](O)[C@@H](OC)C(=O)[C@H](C)C[C@H](C)/C=C/C=C/C=C(\C)C(OCCCCO)C[C@@H]3CC[C@@H](C)[C@@](O)(O3)C(=O)C(=O)N3CCCCC3C(=O)O2)CC[C@H]1O (stereo partly shown) [Compound 221] | – |
| 1000 to 10000 | > 3.16 | COC1C[C@@H]2CC[C@@H](C)[C@@](O)(O2)C(=O)C(=O)N2CCCCC2C(=O)O[C@H]([C@H](C)C[C@@H]2CC[C@@H](OC(=O)NCCCN3CCCCC3)[C@H](OC)C2)CC(=O)[C@H](C)/C=C(\C)[C@@H](O)[C@@H](OC)C(=O)[C@H](C)C[C@H](C)/C=C/C=C/C=C/1C (stereo partly shown) [Compound 366] | – |
| < 1000 | < 0.316 | COC1C[C@@H]2CC[C@@H](C)[C@@](O)(O2)C(=O)C(=O)N2CCCCC2C(=O)O[C@H]([C@H](C)C[C@@H]2CC[C@@H](OC(=O)NCCn3cnnn3)[C@H](OC)C2)CC(=O)[C@H](C)/C=C(\C)[C@@H](O)[C@@H](OC)C(=O)[C@H](C)C[C@H](C)/C=C/C=C/C=C/1C (stereo partly shown) [Compound 312] | – |
| < 1000 | < 0.316 | COC1CC2CCC(C)C(O)(O2)C(=O)C(=O)N2CCCCC2C(=O)OC(C(C)CC2CCC(OCCCN3CCCC(O)C3)C(OC)C2)CC(=O)C(C)C=C(C)C(O)C(OC)C(=O)C(C)CC(C)C=CC=CC=C1C (stereo not shown) [Compound 340] | – |
| 1000 to 10000 | 0.316 to 3.16 | CO[C@@H]1C[C@H](C[C@@H](C)[C@@H]2CC(=O)[C@H](C)/C=C(\C)[C@@H](O)[C@@H](OC)C(=O)[C@H](C)C[C@H](C)/C=C/C=C/C=C(\C)C(c3cccn3C)C[C@@H]3CC[C@@H](C)[C@@](O)(O3)C(=O)C(=O)N3CCCCC3C(=O)O2)CC[C@H]1O (stereo partly shown) [Compound 212] | – |
| < 1000 | < 0.316 | COC1C[C@@H]2CC[C@@H](C)[C@@](O)(O2)C(=O)C(=O)N2CCCCC2C(=O)O[C@H]([C@H](C)C[C@@H]2CC[C@@H](OC(=O)NCCCN3CCOCC3)[C@H](OC)C2)CC(=O)[C@H](C)/C=C(\C)[C@@H](O)[C@@H](OC)C(=O)[C@H](C)C[C@H](C)/C=C/C=C/C=C/1C (stereo partly shown) [Compound 344] | – |

More lines, now with the values behind:

| SMILES | IC50 [1] [nM] | IC50 [2] [nM] | other results |
| --- | --- | --- | --- |
| COCCCOC1CC2CCC(C)C(O)(O2)C(=O)C(=O)N2CCCCC2C(=O)OC(C(C)CC2CCC(OCCCO)C(OC)C2)CC(=O)C(C)C=C(C)C(O)C(OC)C(=O)C(C)CC(C)C=CC=CC=C1C (stereo not shown) [Compound 33] | – | – | pIC50 mTORC2 [1, 3]: B (5 to 6 as B); pIC50 mTORC1 [2, 4]: A (pIC50 for mTORC1 of >9.5 as A) |
| CO[C@@H]1C[C@H](C[C@@H](C)[C@@H]2CC(=O)[C@H](C)/C=C(\C)[C@@H](O)[C@@H](OC)C(=O)[C@H](C)C[C@H](C)/C=C/C=C/C=C(\C)C(OCCO)C[C@@H]3CC[C@@H](C)[C@@](O)(O3)C(=O)C(=O)N3CCCCC3C(=O)O2)CC[C@H]1OC(=O)NCCO (stereo partly shown) [Compound 64] | – | – | pIC50 mTORC2 [1, 3]: A (PIC50 for mTORC2 of <5 as A); pIC50 mTORC1 [2, 4]: B (8.5 to 9.5 as B) |
| COC1CC(CC(C)C2CC(=O)C(C)C=C(C)C(O)C(OC)C(=O)C(C)CC(C)C=CC=CC=C(C)C(OCCO)CC3CCC(C)C(O)(O3)C(=O)C(=O)N3CCCCC3C(=O)O2)CCC1OCCCN1CCOCC1C (mixture of isomers) [Compound 2] | – | – | pIC50 mTORC2 [1, 3]: A (PIC50 for mTORC2 of <5 as A); pIC50 mTORC1 [2, 4]: A (pIC50 for mTORC1 of >9.5 as A) |
| COC1C[C@@H]2CC[C@@H](C)[C@@](O)(O2)C(=O)C(=O)N2CCCCC2C(=O)O[C@H]([C@H](C)C[C@@H]2CC[C@@H](OCCCN3CCCCC3)[C@H](OC)C2)CC(=O)[C@H](C)/C=C(\C)[C@@H](O)[C@@H](OC)C(=O)[C@H](C)C[C@H](C)/C=C/C=C/C=C/1C (stereo partly shown) [Compound 341] | < 1000 | < 0.316 | – |
| CO[C@@H]1C[C@H](C[C@@H](C)[C@@H]2CC(=O)[C@H](C)/C=C(\C)[C@@H](O)[C@@H](OC)C(=O)[C@H](C)C[C@H](C)/C=C/C=C/C=C(\C)C(OCCO)C[C@@H]3CC[C@@H](C)[C@@](O)(O3)C(=O)C(=O)N3CCCCC3C(=O)O2)CC[C@H]1OCCCN1C[C@@H](C)O[C@@H](C)C1 (stereo partly shown) [Compound 18] | – | – | pIC50 mTORC2 [1, 3]: A (PIC50 for mTORC2 of <5 as A); pIC50 mTORC1 [2, 4]: A (pIC50 for mTORC1 of >9.5 as A) |
| COC1C[C@@H]2CC[C@@H](C)[C@@](O)(O2)C(=O)C(=O)N2CCCCC2C(=O)O[C@H]([C@H](C)C[C@@H]2CC[C@@H](OCCCOCCO)[C@H](OC)C2)CC(=O)[C@H](C)/C=C(\C)[C@@H](O)[C@@H](OC)C(=O)[C@H](C)C[C@H](C)/C=C/C=C/C=C/1C (stereo partly shown) [Compound 352] | – | – | pIC50 mTORC2 ([1]; Rapamycin analogs substituted at C40, pAkt Ser473, PC3 cells, 24 hours treatment): C (greater than 6 as C); pIC50 mTORC1 ([2]; Rapamycin analogs substituted at C40, pS6K Thr389, PC3 cells, 24 hours treatment): A (pIC50 for mTORC1 of >9.5 as A) |
| COC1CC2CCC(C)C(O)(O2)C(=O)C(=O)N2CCCCC2C(=O)OC(C(C)CC2CCC(OC(=O)C3(C)COC(C)(C)OC3)C(OC)C2)CC(=O)C(C)C=C(C)C(O)C(OC)C(=O)C(C)CC(C)C=CC=CC=C1C (stereo not shown) [Compound 309] | < 1000 | < 0.316 | – |
| CO[C@@H]1C[C@H](C[C@@H](C)[C@@H]2CC(=O)[C@H](C)/C=C(\C)[C@@H](O)[C@@H](OC)C(=O)[C@H](C)C[C@H](C)/C=C/C=C/C=C(\C)C(SC(C)C)C[C@@H]3CC[C@@H](C)[C@@](O)(O3)C(=O)C(=O)N3CCCCC3C(=O)O2)CC[C@H]1O (stereo partly shown) [Compound 201] | 1000 to 10000 | > 3.16 | – |
| CO[C@@H]1C[C@H](C[C@@H](C)[C@@H]2CC(=O)[C@H](C)/C=C(\C)[C@@H](O)[C@@H](OC)C(=O)[C@H](C)C[C@H](C)/C=C/C=C/C=C(\C)C(OCCO)C[C@@H]3CC[C@@H](C)[C@@](O)(O3)C(=O)C(=O)N3CCCCC3C(=O)O2)CC[C@H]1OCCCN1CCO[C@H](C)C1 (stereo partly shown) [Compound 43] | – | – | pIC50 mTORC2 [1, 3]: B (5 to 6 as B); pIC50 mTORC1 [2, 4]: A (pIC50 for mTORC1 of >9.5 as A) |
| COC1C[C@@H]2CC[C@@H](C)[C@@](O)(O2)C(=O)C(=O)N2CCCCC2C(=O)O[C@H]([C@H](C)C[C@@H]2CC[C@@H](n3ncnn3)[C@H](OC)C2)CC(=O)[C@H](C)/C=C(\C)[C@@H](O)[C@@H](OC)C(=O)[C@H](C)C[C@H](C)/C=C/C=C/C=C/1C (stereo partly shown) [Compound 307] | < 1000 | < 0.316 | – |
| COC1C[C@@H]2CC[C@@H](C)[C@@](O)(O2)C(=O)C(=O)N2CCCCC2C(=O)O[C@H]([C@H](C)C[C@@H]2CC[C@@H](OC(=O)NCc3ccccn3)[C@H](OC)C2)CC(=O)[C@H](C)/C=C(\C)[C@@H](O)[C@@H](OC)C(=O)[C@H](C)C[C@H](C)/C=C/C=C/C=C/1C (stereo partly shown) [Compound 333] | < 1000 | < 0.316 | – |
| CO[C@@H]1C[C@H](C[C@@H](C)[C@@H]2CC(=O)[C@H](C)/C=C(\C)[C@@H](O)[C@@H](OC)C(=O)[C@H](C)C[C@H](C)/C=C/C=C/C=C(\C)C(OC3CC3)C[C@@H]3CC[C@@H](C)[C@@](O)(O3)C(=O)C(=O)N3CCCCC3C(=O)O2)CC[C@H]1O (stereo partly shown) [Compound 209] | < 1000 | < 0.316 | – |
| CO[C@@H]1C[C@H](C[C@@H](C)[C@@H]2CC(=O)[C@H](C)/C=C(\C)[C@@H](O)[C@@H](OC)C(=O)[C@H](C)C[C@H](C)/C=C/C=C/C=C(\C)C(OC[C@@H](C)O)C[C@@H]3CC[C@@H](C)[C@@](O)(O3)C(=O)C(=O)N3CCCCC3C(=O)O2)CC[C@H]1O (stereo partly shown) [Compound 223] | > 10000 | 0.316 to 3.16 | – |
| COC1C[C@@H]2CC[C@@H](C)[C@@](O)(O2)C(=O)C(=O)N2CCCCC2C(=O)O[C@H]([C@H](C)C[C@@H]2CC[C@@H](OC(=O)N(C)CCCN(C)C)[C@H](OC)C2)CC(=O)[C@H](C)/C=C(\C)[C@@H](O)[C@@H](OC)C(=O)[C@H](C)C[C@H](C)/C=C/C=C/C=C/1C (stereo partly shown) [Compound 321] | < 1000 | < 0.316 | – |
| CO[C@@H]1C[C@H](C[C@@H](C)[C@@H]2CC(=O)[C@H](C)/C=C(\C)[C@@H](O)[C@@H](OC)C(=O)[C@H](C)C[C@H](C)/C=C/C=C/C=C(\C)C(OCCO)C[C@@H]3CC[C@@H](C)[C@@](O)(O3)C(=O)C(=O)N3CCCC[C@H]3C(=O)O2)CC[C@H]1OC(=O)NCCc1ccccc1 (mixture of isomers) [Compound 1, [(1R,2R,4S)-4-[(2R)-2-[(1R,9S,12SR,15R,16E,18R,19R,21R,23S,24E,26E,28E,32SR,35R)-1,18-dihydroxy-30-(2-hydroxyethoxy)-19-methoxy-15,17,21,23,29,35-hexamethyl-2,3,10,14,20-pentaoxo-11,36-dioxa-4-azatricyclo[30.3.1.0^4,9]hexatriaconta-16,24,26,28-tetraen-1^2-yl]propyl]-2-methoxy-cyclohexyl] N-(2-phenylethyl)carbamate] | – | – | IC50 [1, 3]: > 10000 nM; IC50 [2, 4]: < 0.316 nM |
| COC1C[C@@H]2CC[C@@H](C)[C@@](O)(O2)C(=O)C(=O)N2CCCCC2C(=O)O[C@H]([C@H](C)C[C@@H]2CC[C@@H](OCCOCCOCCOCCOCCO)[C@H](OC)C2)CC(=O)[C@H](C)/C=C(\C)[C@@H](O)[C@@H](OC)C(=O)[C@H](C)C[C@H](C)/C=C/C=C/C=C/1C (stereo partly shown) [Compound 350] | < 1000 | < 0.316 | – |
| CO[C@@H]1C[C@H](C[C@@H](C)[C@@H]2CC(=O)[C@H](C)/C=C(\C)[C@@H](O)[C@@H](OC)C(=O)[C@H](C)C[C@H](C)/C=C/C=C/C=C(\C)C(OCCO)C[C@@H]3CC[C@@H](C)[C@@](O)(O3)C(=O)C(=O)N3CCCC[C@H]3C(=O)O2)CC[C@H]1OCCCN1CC2(COC2)C1 (mixture of isomers) [Compound 78] | – | – | IC50 [1, 3]: > 10000 nM; IC50 [2, 4]: 0.316 to 3.16 nM |
